Data: patent US6753342B2, “2-(1h-indol-3-yl)-2-oxo-acetamides with antitumor activity” (Novuspharma S.p.A., priority 1999, dated 2004)
≈ marks a conversion by molar mass, not a printed value.

What was measured:
HT 29 (colon carcinoma) = experiment: Cytotoxicity, MTT assay, HT 29 cells; type: cell-based; conditions: human colon adenocarcinoma cells, 144 hours incubation, read-out: HT29 (IC50, μg/ml)
Protocol: (§1) The compounds according to the invention have been pharmacologically tested against four human tumor cell lines: HT 29 (colon carcinoma), PC 3 (prostate carcinoma), H 460M (lung carcinoma), MKN-45 (gastric carcinoma). Cells were incubated with the tested compound for 144 hours, then cytotoxicity was determined by using the MTT assay (Mosman, T. “Rapid Colorimetric Assay for Cellular Growth and Survival: Application to Proliferation and Cytotoxicity Assay”; J. Immunolog. Methods, (1983), 65, 66; Green, L. M., “Rapid Colorimetric Assay for Cell Viability; Application to the Quantitation of Cytotoxic and Growth Inhibitory Lymphokines”, J. Immunol. Methods, (1984),;70, 257-268).
(§2) The compounds according to the invention have been pharmacologically tested against four human tumour cell lines: HT 29 (colon carcinoma), PC 3 (prostate carcinoma), H 460M (lung carcinoma), MKN45 (gastric carcinoma). Cells were incubated with the tested compound for 144 hours, then cytotoxicity was determined by using the MTT assay (Mosman, T. “Rapid Colorimetric Assay for Cellular Growth and Survival: Application to Proliferation and Cytotoxicity Assay”; J. Immunolog. Methods, (1983), 65, 66; Green, L. M., “Rapid Colorimetric Assay for Cell Viability; Application to the Quantitation of Cytotoxic and Growth Inhibitory Lymphokines”, J. Immunol. Methods, (1984), 70, 257-268).

H 460M (lung carcinoma) = experiment: Cytotoxicity, MTT assay, H 460M cells; type: cell-based; conditions: human lung carcinoma cells, 144 hours incubation, read-out: H460M (IC50, μg/ml)
Protocol: as §1, §2

[1] = tested on: MKN-45 (gastric carcinoma); experiment: Cytotoxicity, MTT assay, MKN-45 cells; type: cell-based; conditions: human gastric carcinoma cells, 144 hours incubation, read-out: MKN-45 (IC50, μg/ml)
Protocol: as §1, §2

[2] = tested on: PC 3 (prostate carcinoma); experiment: Cytotoxicity, MTT assay, PC 3 cells; type: cell-based; conditions: human prostate carcinoma cells, 144 hours incubation, read-out: PC3 (IC50, μg/ml)
Protocol: as §1, §2

Row | melting point | SMILES | IC50 (HT 29 (colon carcinoma)) | IC50 (H 460M (lung carcinoma)) | IC50 [1] | IC50 [2]
1 | – | O=C1C=C(NC(=O)C(=O)c2cn(Cc3ccc(Cl)cc3)c3cc(Cl)ccc23)CO1 [Example 4] | 0.1 µg/mL (≈ 0.233 µM) | 0.049 µg/mL (≈ 0.114 µM) | 0.12 µg/mL (≈ 0.28 µM) | 0.3 µg/mL (≈ 0.699 µM)
2 | 225 to 227 °C | CN(C)CCNC(=O)c1cccc2c1c(C(=O)C(=O)NC1=CC(=O)OC1)cn2Cc1ccc(Cl)cc1 | – | – | – | –
3 | 268 to 270 °C | O=C1C=C(NC(=O)C(=O)c2cn(Cc3ccc(Cl)cc3)c3ccccc23)CS1 | – | – | – | –
4 | 238 to 240 °C | O=C1C=C(NC(=O)C(=O)c2cn(Cc3ccc(Cl)cc3)c3cccc(CO)c23)CO1 | – | – | – | –
5 | 190 to 196 °C | NCCNC(=O)c1cccc2c1c(C(=O)C(=O)NC1=CC(=O)OC1)cn2Cc1ccc(Cl)cc1 | – | – | – | –

Row | SMILES | melting point | IC50 (HT 29 (colon carcinoma)) | IC50 (H 460M (lung carcinoma)) | IC50 [1] | IC50 [2]
6 | O=C1C=C(NC(=O)C(=O)c2cn(Cc3ccc(Cl)cc3)c3ccccc23)CO1 [Example 2, N-(5-oxo-2,5-dihydrofuran-3-yl)-2-(1-(4-chlorobenzyl)-1H-indol-3-yl)-2-oxo-acetamide] | 253 to 255 °C | 0.13 µg/mL (≈ 0.329 µM) | 0.011 µg/mL (≈ 0.0279 µM) | 0.048 µg/mL (≈ 0.122 µM) | 0.22 µg/mL (≈ 0.557 µM)
7 | O=C1C=C(NC(=O)C(=O)c2cn(Cc3ccc(F)cc3)c3ccccc23)CO1 [Example 3, N-(5-oxo-2,5-dihydrofuran-3-yl)-2-(1-(4-fluorobenzyl)-1H-indol-3-yl)-2-oxo-acetamide] | 260 to 262 °C | 0.0004 µg/mL (≈ 0.00106 µM) | 0.012 µg/mL (≈ 0.0317 µM) | 0.088 µg/mL (≈ 0.233 µM) | 0.035 µg/mL (≈ 0.0925 µM)
